Source: ChEMBL document CHEMBL1201862, “PubChem BioAssay data set” (2004)
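Briefly, cells in 96-well plates were exposed to five compound concentrations for 48 h, and endpoints were estimated by linear interpolation. GI50 marks 50% less growth.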 The source made the active and inactive calls. No stated cut-off is given here; in the data, active = GI50 up to about 1.1 µM and inactive = higher.

Tests used:
Assay in all cases: NCI anticancer screen, dose series, 48 h
LXFL 529 = system: LXFL 529
SF-268 = system: SF-268
BT-549 = system: BT-549
MOLT-4 = system: MOLT-4
A498 = system: A498
SK-MEL-28 = system: SK-MEL-28
786-0 = system: 786-0
K562 = system: K562
SR = system: SR
NCI-H226 = system: NCI-H226
UO-31 = system: UO-31
COLO 205 = system: COLO 205
LOX IMVI = system: LOX IMVI
CAKI-1 = system: CAKI-1
CCRF-CEM = system: CCRF-CEM
IGROV-1 = system: IGROV-1
HCT-116 = system: HCT-116
SK-OV-3 = system: SK-OV-3
HT-29 = system: HT-29
NCI/ADR-RES = system: NCI/ADR-RES

With `COc1ccc(C2=CN3CCC[C@H]3C=C2c2cc(O)c(OC)c(OC)c2)cc1OC` the GI50 (LXFL 529) was 0.00389 µM (active), the GI50 (SF-268) was 0.00454 µM (active) and the GI50 (BT-549) was 0.0207 µM (active). The GI50 (MOLT-4) was 0.00351 µM (active), the GI50 (A498) was 0.005 µM (active) and the GI50 (SK-MEL-28) was 0.0045 µM (active). For the same compound, the GI50 (786-0) was 0.00371 µM (active), the GI50 (K562) was 0.00339 µM (active) and the GI50 (SR) was 0.00394 µM (active). For the same compound, the GI50 (NCI-H226) was 0.00376 µM (active), the GI50 (UO-31) was 0.0108 µM (active) and the GI50 (COLO 205) was 0.0115 µM (active). For the same compound, the GI50 (LOX IMVI) was 0.00163 µM (active), the GI50 (CAKI-1) was 0.00382 µM (active) and the GI50 (CCRF-CEM) was 0.0033 µM (active). For the same compound, the GI50 (IGROV-1) was 0.0104 µM (active), the GI50 (HCT-116) was 0.00198 µM (active) and the GI50 (SK-OV-3) was 0.00564 µM (active). For the same compound, the GI50 (HT-29) was 0.0056 µM (active).

For `Nc1ccc(C(=O)Nc2ccccc2N)cc1` [DINALINE], the GI50 (LXFL 529) was 22.5 µM (inactive), the GI50 (SF-268) was 31.1 µM (inactive) and the GI50 (BT-549) was 67.6 µM (inactive). The GI50 (MOLT-4) was 11.8 µM (inactive), the GI50 (A498) was 27.5 µM (inactive) and the GI50 (SK-MEL-28) was 24.5 µM (inactive). For the same compound, the GI50 (786-0) was > 66.4 µM (inactive), the GI50 (K562) was 14.1 µM (inactive) and the GI50 (NCI/ADR-RES) was 3.21 µM (inactive). The GI50 (SR) was 16.3 µM (inactive), the GI50 (NCI-H226) was > 78.5 µM (inactive) and the GI50 (UO-31) was 42.6 µM (inactive). For the same compound, the GI50 (COLO 205) was 17.6 µM (inactive), the GI50 (LOX IMVI) was 21 µM (inactive) and the GI50 (CAKI-1) was 42.8 µM (inactive). For the same compound, the GI50 (CCRF-CEM) was 11.4 µM (inactive), the GI50 (IGROV-1) was 31.1 µM (inactive) and the GI50 (HCT-116) was 14.2 µM (inactive). The GI50 (SK-OV-3) was > 100 µM (inactive) and the GI50 (HT-29) was 25.9 µM (inactive).

With `COC(=O)/C(=N\NC(C)(C)C)C(C(=O)OC)C(=O)C(=O)Nc1cc(Cl)ccc1Cl` (stereo unspecified) the GI50 (LXFL 529) was > 100 µM (inactive), the GI50 (SF-268) was > 100 µM (inactive) and the GI50 (MOLT-4) was > 100 µM (inactive). For the same compound, the GI50 (A498) was > 100 µM (inactive), the GI50 (SK-MEL-28) was > 100 µM (inactive) and the GI50 (786-0) was > 100 µM (inactive). For the same compound, the GI50 (K562) was > 100 µM (inactive), the GI50 (SR) was > 100 µM (inactive) and the GI50 (NCI-H226) was > 100 µM (inactive). For the same compound, the GI50 (UO-31) was > 100 µM (inactive), the GI50 (COLO 205) was > 100 µM (inactive) and the GI50 (LOX IMVI) was > 100 µM (inactive). The GI50 (CAKI-1) was > 100 µM (inactive), the GI50 (CCRF-CEM) was > 100 µM (inactive) and the GI50 (IGROV-1) was > 100 µM (inactive). For the same compound, the GI50 (HCT-116) was > 100 µM (inactive), the GI50 (SK-OV-3) was > 100 µM (inactive) and the GI50 (HT-29) was > 100 µM (inactive).

In the case of `CO[C@H]1[C@H](O)[C@H](O[C@H]2CC[C@@]3(C)[C@H](CC[C@@H]4[C@@H]3CC[C@]3(C)[C@@H](C5=CC(=O)OC5)CC[C@]43O)C2)O[C@@H](C)[C@@H]1O` [NERIIFOLIN], the GI50 (LXFL 529) is reported as 0.00135 µM (active), the GI50 (SF-268) is reported as 0.000444 µM (active) and the GI50 (BT-549) is reported as 0.000429 µM (active). The GI50 (MOLT-4) was 0.000377 µM (active), the GI50 (A498) was 0.00863 µM (active) and the GI50 (SK-MEL-28) was 0.00189 µM (active). For the same compound, the GI50 (786-0) was 0.000439 µM (active), the GI50 (NCI/ADR-RES) was 0.000546 µM (active) and the GI50 (SR) was < 0.01 µM (active). The GI50 (NCI-H226) was 0.00596 µM (active), the GI50 (UO-31) was 0.000902 µM (active) and the GI50 (COLO 205) was 0.0018 µM (active). The GI50 (LOX IMVI) was 0.000755 µM (active), the GI50 (CAKI-1) was 0.000572 µM (active) and the GI50 (CCRF-CEM) was 0.000362 µM (active). For the same compound, the GI50 (IGROV-1) was 0.000526 µM (active), the GI50 (HCT-116) was 0.000689 µM (active) and the GI50 (SK-OV-3) was 0.00108 µM (active). The GI50 (HT-29) was 0.000615 µM (active).

In the case of `CNS(=O)(=O)NNS(=O)(=O)c1ccccc1`, the GI50 (LXFL 529) is reported as > 100 µM (inactive), the GI50 (SF-268) is reported as > 100 µM (inactive) and the GI50 (MOLT-4) is reported as > 100 µM (inactive). For the same compound, the GI50 (A498) was > 100 µM (inactive), the GI50 (SK-MEL-28) was > 100 µM (inactive) and the GI50 (786-0) was > 100 µM (inactive). The GI50 (K562) was > 100 µM (inactive), the GI50 (SR) was > 100 µM (inactive) and the GI50 (NCI-H226) was > 100 µM (inactive). For the same compound, the GI50 (UO-31) was > 100 µM (inactive), the GI50 (COLO 205) was > 100 µM (inactive) and the GI50 (LOX IMVI) was > 100 µM (inactive). For the same compound, the GI50 (CAKI-1) was > 100 µM (inactive), the GI50 (CCRF-CEM) was > 100 µM (inactive) and the GI50 (IGROV-1) was > 100 µM (inactive). For the same compound, the GI50 (HCT-116) was > 100 µM (inactive), the GI50 (SK-OV-3) was > 100 µM (inactive) and the GI50 (HT-29) was > 100 µM (inactive).

With `O=C(/C=C/c1ccccc1)/C=C/c1ccccc1` the GI50 (LXFL 529) was 21.2 µM (inactive), the GI50 (SF-268) was 28.4 µM (inactive) and the GI50 (MOLT-4) was 20.7 µM (inactive). For the same compound, the GI50 (A498) was > 100 µM (inactive), the GI50 (SK-MEL-28) was 18.5 µM (inactive) and the GI50 (786-0) was 30.3 µM (inactive). The GI50 (K562) was 28.8 µM (inactive), the GI50 (SR) was 26.2 µM (inactive) and the GI50 (NCI-H226) was > 100 µM (inactive). The GI50 (UO-31) was 43.5 µM (inactive), the GI50 (COLO 205) was > 100 µM (inactive) and the GI50 (LOX IMVI) was 16.8 µM (inactive). For the same compound, the GI50 (CAKI-1) was 92.9 µM (inactive), the GI50 (CCRF-CEM) was 36.9 µM (inactive) and the GI50 (IGROV-1) was 28.1 µM (inactive). For the same compound, the GI50 (HCT-116) was 17.3 µM (inactive), the GI50 (SK-OV-3) was 43 µM (inactive) and the GI50 (HT-29) was 17.8 µM (inactive).

`C=C(CCCCC)CN1CCCC1[C@@](C)(O)CC(=O)OCC` (stereo partly specified) was tested, and the GI50 (LXFL 529) was > 100 µM (inactive), the GI50 (SF-268) was > 100 µM (inactive) and the GI50 (MOLT-4) was 90.2 µM (inactive). The GI50 (A498) was > 100 µM (inactive), the GI50 (SK-MEL-28) was > 100 µM (inactive) and the GI50 (786-0) was > 100 µM (inactive). For the same compound, the GI50 (K562) was > 100 µM (inactive), the GI50 (SR) was 71.8 µM (inactive) and the GI50 (NCI-H226) was > 100 µM (inactive). The GI50 (UO-31) was > 100 µM (inactive), the GI50 (COLO 205) was > 100 µM (inactive) and the GI50 (LOX IMVI) was > 100 µM (inactive). The GI50 (CAKI-1) was > 100 µM (inactive), the GI50 (CCRF-CEM) was > 100 µM (inactive) and the GI50 (IGROV-1) was > 100 µM (inactive). For the same compound, the GI50 (HCT-116) was > 100 µM (inactive), the GI50 (SK-OV-3) was > 100 µM (inactive) and the GI50 (HT-29) was > 100 µM (inactive).

For `COc1cc2c(cc1OC)C1Cc3cc(OC)c(OC)cc3C(C2)N1C`, the GI50 (LXFL 529) was > 100 µM (inactive), the GI50 (SF-268) was > 100 µM (inactive) and the GI50 (BT-549) was > 75 µM (inactive). The GI50 (MOLT-4) was > 75 µM (inactive), the GI50 (A498) was > 75 µM (inactive) and the GI50 (SK-MEL-28) was > 100 µM (inactive). The GI50 (786-0) was > 75 µM (inactive), the GI50 (K562) was > 100 µM (inactive) and the GI50 (NCI/ADR-RES) was > 75 µM (inactive). For the same compound, the GI50 (NCI-H226) was > 75 µM (inactive), the GI50 (COLO 205) was > 75 µM (inactive) and the GI50 (LOX IMVI) was 48 µM (inactive). The GI50 (CAKI-1) was 85.1 µM (inactive), the GI50 (IGROV-1) was > 75 µM (inactive) and the GI50 (HCT-116) was 26.9 µM (inactive). The GI50 (SK-OV-3) was > 75 µM (inactive).
